Tested on: subjects diagnosed with dIBS
Test: Designed study of 14-day oral rifaximin 550 mg TID for adequate relief of dIBS symptoms over four weeks
Assay type: in vivo, human
Settings: oral 550 mg TID, 14-day course; 4 week study duration
Protocol: A study is designed to evaluate the efficacy of a 14-day course of oral rifaximin at 550 mg TID in providing adequate relief from diarrhea-associated IBS (dIBS) symptoms over four weeks. The study populations includes subjects diagnosed with dIBS according to Rome III criteria utilizing the subtype for dIBS from the Rome II criteria. Subjects have a mean abdominal pain and discomfort score <4.5, a mean bloating score of <4.5 and a mean stool score (loose and watery)<3.5 for at least 7 of the 10 days during screening. A measure of efficacy is based on subjects' answers to the Weekly Subject Global Assessment (SGA) questions over the 4 week study duration in relation to their IBS symptoms. The SGA question is asked weekly as follows: “In the past 7 days, have you had adequate relief of your IBS symptoms?” (Yes/No.) It is discovered that Subjects in the treatment group taking oral rifaximin respond “Yes” more often than Subjects who are not taking oral rifaximin. Another measure of efficacy is based on subjects' answers to the Weekly Subject Global Assessment (SGA) question over the 4 week study duration in relation to their IBS symptom of bloating. The SGA question is asked weekly as follows: “In the past 7 days, have you had adequate relief of your IBS symptom of bloating?” (Yes/No). […]

With COC1/C=C/OC2(C)Oc3c(C)c(O)c4c(O)c(c5c(nc6cc(C)ccn65)c4c3C2=O)NC(=O)/C(C)=C\C=C\C(C)C(O)C(C)C(O)C(C)C(OC(C)=O)C1C [RFX, (2S,16Z,18E,20S,21S,22R,23R,24R,25S,26S,27S,28E)-5,6,21,23,25 Pentahydroxy-27-methoxy-2,4,11,16,20,22,24,26-octamethyl-2,7-(epoxypentadeca-(1,11,13)trienimino)benzofuro(4,5-e)pyrido(1,2,-a)benzimidazole-1,15(2H)-dione,25-acetate] the “"Yes" responses to weekly SGA question on adequate relief of IBS symptom of bloating versus subjects not taking rifaximin” value was “more often” and the “"Yes" responses to weekly SGA question on adequate relief of IBS symptoms versus subjects not taking rifaximin” value was “more often”.
